Our source for the IC50 values is patent publication US12264134B2 (Merck Sharp & Dohme LLC, priority 2018, dated 2025).

The test addresses IDO1 (Homo sapiens, UniProt P14902). Nature of the test: IDO1 Cellular Assay in HeLa Cells Stimulated with IFNγ. The class given is cell-based. Conditions: read-out: HeLa Cell Potency, IC50.

SMILES strings stand for the structures.

IDO1, sequence (P14902 whole entry): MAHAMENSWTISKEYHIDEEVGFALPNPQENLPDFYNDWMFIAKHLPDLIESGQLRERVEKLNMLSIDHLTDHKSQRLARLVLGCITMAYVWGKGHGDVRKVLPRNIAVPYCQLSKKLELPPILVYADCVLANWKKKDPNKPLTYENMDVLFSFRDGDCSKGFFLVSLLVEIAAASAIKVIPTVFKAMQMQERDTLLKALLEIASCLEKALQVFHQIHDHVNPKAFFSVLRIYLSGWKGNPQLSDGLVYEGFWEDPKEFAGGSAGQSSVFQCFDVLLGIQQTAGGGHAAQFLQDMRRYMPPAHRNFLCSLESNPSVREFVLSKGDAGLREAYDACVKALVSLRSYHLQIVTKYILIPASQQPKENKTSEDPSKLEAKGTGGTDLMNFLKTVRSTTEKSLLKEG

By IC50 is commonly meant the concentration needed to halve the response being measured. Turning to `Cc1cccc(N2CCN(C(=O)Cn3nc(C(=O)N4CCCC(N5CCCC5=O)C4)c4c3C[C@H]3C[C@@H]43)CC2)c1C` (stereo partly drawn) [Example 225, 1-{1-[(3bR,4aR)-1-{2-[4-(2,3-dimethylphenyl)piperazin-1-yl]-2-oxoethyl}-3b,4,4a,5-tetrahydro-1H-cyclopropa[3,4]cyclopenta[1,2-c]pyrazole-3-carbonyl]piperidin-3-yl}pyrrolidine-2-one], the IC50 came out at 0.00393 µM.
In the case of `O=C(Cn1nc(C(=O)N2CC[C@H](O)[C@@H](F)C2)c2c1CCC2)N1CCN(C2CCCc3ccccc32)CC1` (stereo partly drawn) [Example 433, 2-(3-((3S,4S)-3-fluoro-4-hydroxypiperidine-1-carbonyl)-5,6-dihydrocyclopenta[c]pyrazol-1(4H)-yl)-1-(4-(1,2,3,4-tetrahydronaphthalen-1-yl)piperazin-1-yl)ethanone] it was 0.494 µM; in that of `Cc1c(C(F)F)cccc1N1CCN(C(=O)Cn2nc(C(=O)N3CC[C@@H](O)[C@@H](F)C3)c3c2C[C@H]2C[C@@H]32)CC1` [Example 347, 1-(4-(3-(difluoromethyl)-2-methylphenyl)piperazin-1-yl)-2-((3bR,4aR)-3-((3S,4R)-3-fluoro-4-hydroxypiperidine-1-carbonyl)-3b,4,4a,5-tetrahydro-1H-cyclopropa[3,4]cyclopenta[1,2-c]pyrazol-1-yl)ethanone], 0.00273 µM; in that of `Cc1cccc(N2CCN(C(=O)Cn3nc(C(=O)N4CC[C@H](O)[C@@H](C)C4)c4c3C[C@H]3C[C@@H]43)CC2)c1C` [Example 282, 1-[4-(2,3-dimethylphenyl)piperazin-1-yl]-2-{(3bR,4aR)-3-[(3S,4S)-4-hydroxy-3-methylpiperidine-1-carbonyl]-3b,4,4a,5-tetrahydro-1H-cyclopropa[3,4]cyclopenta[1,2-c]pyrazol-1-yl}ethan-1-one], 0.00097 µM.
Consider `Cc1cc(C)c(N2CCN(C(=O)Cn3nc(C(=O)N4C[C@@H](C)O[C@@H](C)C4)c4c3CCC4)CC2)cc1C` [Example 71, 2-{3-[(2R,6S)-2,6-dimethylmorpholine-4-carbonyl]-5,6-dihydrocyclopenta[c]pyrazol-1(4H)-yl}-1-[4-(2,4,5-trimethylphenyl)piperazin-1-yl]ethan-1-one], for which the IC50 came out at 0.145 µM.
Under `Cc1cccc(N2CCN(C(=O)Cn3nc(C(=O)N4C[C@@H](C)O[C@@H](C)C4)c4c3CC[C@H](C(F)(F)F)C4)CC2)c1C` [Example 302, 2-[(5S)-3-[(2R,6S)-2,6-dimethylmorpholine-4-carbonyl]-5-(trifluoromethyl)-4,5,6,7-tetrahydro-1H-indazol-1-yl]-1-[4-(2,3-dimethylphenyl)piperazin-1-yl]ethan-1-one] stands 0.0249 µM; under `Cc1cccc(N2CCN(C(=O)Cn3nc(C(=O)N4CCC(NC(N)=O)CC4)c4c3CCC4)CC2)c1C` [Example 188, N-[1-(1-{2-[4-(2,3-dimethylphenyl)piperazin-1-yl]-2-oxoethyl}-1,4,5,6-tetrahydrocyclopenta[c]pyrazole-3-carbonyl)piperidin-4-yl]urea], 0.00976 µM.
Under `Cc1cccc(N2CCN(C(=O)Cn3nc(C(=O)N4CC5CC4CC5O)c4c3CCC4)CC2)c1C` (stereo not shown) [Example 96, 1-[4-(2,3-dimethylphenyl)piperazin-1-yl]-2-[3-(5-hydroxy-2-azabicyclo[2.2.1]heptane-2-carbonyl)-5,6-dihydrocyclopenta[c]pyrazol-1(4H)-yl]ethan-1-one] stands 0.0132 µM; under `Cc1ccccc1N1CCN(C(=O)Cn2nc(C(=O)N3C[C@@H](C)O[C@@H](C)C3)c3c2CCC3)CC1` [Example 487, 2-(3-((2S,6R)-2,6-dimethylmorpholine-4-carbonyl)-5,6-dihydro-cyclopenta[c]pyrazol-1(4H)-yl)-1-(4-(o-tolyl)piperazin-1-yl)ethanone,], 0.0514 µM; under `Cc1cccc(N2CCN(C(=O)Cn3nc(C(=O)N4CCC5(CC4)CC5(F)F)c4c3CCC4)CC2)c1C` [Example 110, 2-[3-(1,1-difluoro-6-azaspiro[2.5]octane-6-carbonyl)-5,6-dihydrocyclopenta[c]pyrazol-1(4H)-yl]-1-[4-(2,3-dimethylphenyl)piperazin-1-yl]ethan-1-one], 0.00539 µM.
Take `O=C(Cn1nc(C(=O)N2CCC(O)(CF)CC2)c2c1CCC2)N1CCN(c2cccc3c(F)cccc23)CC1` [Example 444, 2-(3-(4-(fluoromethyl)-4-hydroxypiperidine-1-carbonyl)-5,6-dihydrocyclopenta[c]pyrazol-1(4H)-yl)-1-(4-(5-fluoronaphthalen-1-yl)piperazin-1-yl)ethan-1-one]: the half-maximal inhibitory concentration (IC50) is 0.298 µM.
Under `Cc1cccc(N2CCN(C(=O)Cn3nc(C(=O)N4CCC(N5CCNC5=O)CC4)c4c3C[C@H]3C[C@@H]43)CC2)c1C` [Example 253, 1-{1-[(3bR,4aR)-1-{2-[4-(2,3-dimethylphenyl)piperazin-1-yl]-2-oxoethyl}-3b,4,4a,5-tetrahydro-1H-cyclopropa[3,4]cyclopenta[1,2-c]pyrazole-3-carbonyl]piperidin-4-yl}imidazolidin-2-one] stands 0.00152 µM.
In the case of `C[C@@H]1CN(C(=O)c2nn(CC(=O)N3CCN(c4ccc(F)c(F)c4)CC3)c3c2CCC3)C[C@H](C)O1` [Example 45, 1-[4-(3,4-difluorophenyl)piperazin-1-yl]-2-{3-[(2R,6S)-2,6-dimethylmorpholine-4-carbonyl]-5,6-dihydrocyclopenta[c]pryazol-1(4H)-yl}ethan-1-one] it was 0.233 µM; in that of `Cc1cccc(N2CCN(C(=O)Cn3nc(C(=O)N4CC5CCC4CC5O)c4c3CCC4)CC2)c1C` (stereo not shown) [Example 151, 1-[4-(2,3-dimethylphenyl)piperazin-1-yl]-2-[3-(5-hydroxy-2-azabicyclo[2.2.2]octane-2-carbonyl)-5,6-dihydrocyclopenta[c]pyrazol-1(4H)-yl]ethan-1-one], 0.00463 µM; in that of `C[C@@H]1CN(C(=O)c2nn(CC(=O)N3CCN(c4ccc(Cl)c(F)c4)CC3)c3c2CCC3)C[C@H](C)O1` [Example 54, 1-[4-(4-chloro-3-fluorophenyl)piperazin-1-yl]-2-{3-[(2R,6S)-2,6-dimethylmorpholine-4-carbonyl]-5,6-dihydrocyclopenta[c]pyrazol-1(4H)-yl}ethan-1-one], 0.0571 µM.
`Cc1cccc(N2CCN(C(=O)Cn3nc(C(=O)N4C[C@@H](C)N[C@@H](C)C4)c4c3CCC4)CC2)c1C` [Example 197, 1-[4-(2,3-dimethylphenyl)piperazin-1-yl]-2-{3-[(3R,5S)-3,5-dimethylpiperazine-1-carbonyl]-5,6-dihydrocyclopenta[c]pyrazol-1(4H)-yl}ethan-1-one]: the IC50 was 0.0114 µM.
As to `Cc1cccc(N2CCN(C(=O)Cn3nc(C(=O)N4CCC(O)CC4)c4c3CCC4C(F)F)CC2)c1C` (single isomer, unassigned) [Example 15, 2-[4-(difluoromethyl)-3-(4-hydroxypiperidine-1-carbonyl)-5,6-dihydro-4H-cyclopenta[c]pyrazol-1-yl]-1-[4-(2,3-dimethylphenyl)piperazin-1-yl]ethanone], the half-maximal inhibitory concentration (IC50) was found to be 0.0199 µM.
As for `Cc1c(N2CCN(C(=O)Cn3nc(C(=O)N4CCC(O)(CF)CC4)c4c3CCC4)CC2)ccc(F)c1Cl` [Example 445, 1-(4-(3-chloro-4-fluoro-2-methylphenyl)piperazin-1-yl)-2-(3-(4-(fluoromethyl)-4-hydroxypiperidine-1-carbonyl)-5,6-dihydrocyclopenta[c]pyrazol-1(4H)-yl)ethan-1-one], the IC50 was determined as 0.00531 µM.
As for `Cc1c(Cl)cccc1N1CCN(C(=O)Cn2nc(C(=O)N3CC[C@H](O)[C@@H](F)C3)c3c2CCCC3)CC1` [Example 404, 1-(4-(3-chloro-2-methylphenyl)piperazin-1-yl)-2-(3-((3S,4S)-3-fluoro-4-hydroxypiperidine-1-carbonyl)-4,5,6,7-tetrahydro-1H-indazol-1-yl)ethanone], the IC50 amounted to 0.00106 µM.
`Cc1cccc(N2CCN(C(=O)Cn3nc(C(=O)N4CC[C@H](O)[C@H](F)C4)c4c3C[C@@H]3C[C@H]43)CC2)c1C` [Example 307, 1-[4-(2,3-dimethylphenyl)piperazin-1-yl]-2-{(3bS,4aS)-3-[(3R,4S)-3-fluoro-4-hydroxypiperidine-1-carbonyl]-3b,4,4a,5-tetrahydro-1H-cyclopropa[3,4]cyclopenta[1,2-c]pyrazol-1-yl}ethan-1-one]: the IC50 was determined as 0.0714 µM.
On to `Cc1c(C(F)F)cccc1N1CCN(C(=O)Cn2nc(C(=O)N3CCO[C@H](CO)C3)c3c2C[C@H]2C[C@@H]32)CC1` [Example 349, 1-(4-(3-(difluoromethyl)-2-methylphenyl)piperazin-1-yl)-2-((3bR,4aR)-3-((S)-2-(hydroxymethyl)morpholine-4-carbonyl)-3b,4,4a,5-tetrahydro-1H-cyclopropa[3,4]cyclopenta[1,2-c]pyrazol-1-yl)ethanone], for which the IC50 came to 0.00446 µM.
Consider `Cc1cccc(N2CCN(C(=O)Cn3nc(C(=O)N4CC[C@@H](O)[C@@H](F)C4)c4c3C(O)CC4)CC2)c1C` (mixture of isomers) [Example 421, 1-(4-(2,3-dimethylphenyl)piperazin-1-yl)-2-(3-((3S,4R)-3-fluoro-4-hydroxypiperidine-1-carbonyl)-6-hydroxy-5,6-dihydrocyclopenta[c]pyrazol-1(4H)-yl)ethanone], for which the IC50 came to 0.692 µM.
With `COC(=O)N1CCN(C(=O)c2nn(CC(=O)N3CCN(c4cccc(C)c4C)CC3)c3c2CCC3)CC1` [Example 86, methyl 4-(1-{2-[4-(2,3-dimethylphenyl)piperazin-1-yl]-2-oxoethyl]-1,4,5,6-tetrahydrocyclopenta[c]pyrazole-3-carbonyl)piperazine-1-carboxylate], the IC50 came to 0.00412 µM.
`COCC(=O)N1CCN(C(=O)c2nn(CC(=O)N3CCN(c4cccc(C)c4C)CC3)c3c2CCC3)CC1` [Example 399, 1-(4-(2,3-dimethylphenyl)piperazin-1-yl)-2-(3-(4-(2-methoxyacetyl)piperazine-1-carbonyl)-5,6-dihydrocyclopenta[c]pyrazol-1(4H)-yl)ethanone]: the IC50 was 0.0224 µM.
Under `Cc1cccc(N2CCN(C(=O)Cn3nc(C(=O)N4CC[C@@H](O)[C@@H](F)C4)c4c3C(O)CC4)CC2)c1C` (single isomer, unassigned) [Example 423] stands 0.195 µM.
